The values below are quoted from earlier work in patent US20090137653A1, “SUBSTITUTED BENZYLAMINES AS CYP2A INHIBITORS AND USES THEREOF TO TREAT NICOTINE DEPENDENCE” (INFLAYZME PHARMACEUTICALS LTD., priority 2005, published 2009).

For orientation: half-life means how long it takes for the measured level to halve. As usually defined, the Ki is a dissociation constant, usually derived from enzyme kinetics or from competition with a known ligand.

In one data set the target is CYP2A6 (Homo sapiens, UniProt P11509). The conditions noted are these: read-out: CYP2A6 Ki; human liver microsomes. Background: Liver microsomes are vesicles of endoplasmic reticulum, rich in cytochrome P450 enzymes.
Chain of CYP2A6 (P11509 whole entry): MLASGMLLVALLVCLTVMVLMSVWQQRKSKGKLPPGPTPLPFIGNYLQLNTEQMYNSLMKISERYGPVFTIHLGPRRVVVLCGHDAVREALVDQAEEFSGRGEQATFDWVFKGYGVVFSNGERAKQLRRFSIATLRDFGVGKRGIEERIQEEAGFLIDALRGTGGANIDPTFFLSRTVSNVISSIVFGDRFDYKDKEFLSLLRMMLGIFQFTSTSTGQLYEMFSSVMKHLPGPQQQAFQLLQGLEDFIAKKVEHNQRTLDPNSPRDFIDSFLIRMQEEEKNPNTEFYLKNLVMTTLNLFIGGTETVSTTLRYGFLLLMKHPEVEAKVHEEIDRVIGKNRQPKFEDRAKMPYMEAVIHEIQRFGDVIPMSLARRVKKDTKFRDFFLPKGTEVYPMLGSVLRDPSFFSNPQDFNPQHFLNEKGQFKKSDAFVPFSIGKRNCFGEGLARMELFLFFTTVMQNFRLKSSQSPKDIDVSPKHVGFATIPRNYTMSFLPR

Regarding `CN1CCCC1c1cccnc1` (stereo not drawn) [nicotine], under “in vivo”, the half-life was 1 to 2 h. Also, under “taken orally, liver”, the “eliminated by first pass effect” value is recorded as “around 70%”.
As for `N[C@@H]1C[C@H]1c1ccccc1` (racemic) [tranylcypromine], at CYP2A6, the Ki was 200 nM.
